# In patent US20210255193A1, “LYSINE REACTIVE PROBES AND USES THEREOF” (The Scripps Research Institute, priority 2017, published 2021):
# What was measured:
# G6PD = biological target: T1, G6PD (Homo sapiens, UniProt P11413); test: direct labeling of recombinantly expressed proteins by gel-based ABPP (WT vs lysine mutant); type: binding; conditions: G6PD K171, KR mutant; 10 μM probe, 1 h
# T1 construct: expressed in transfected cells; host or cells: HEK 293T
# HK1 = biological target: T2, HK1 (Homo sapiens, UniProt P19367); test: as above; type: binding; conditions: HK1 K510, KR mutant; 10 μM probe, 1 h
# T2 construct: Flag; expressed in transfected cells; host or cells: HEK 293T
# T2 sequence (P19367 1-917): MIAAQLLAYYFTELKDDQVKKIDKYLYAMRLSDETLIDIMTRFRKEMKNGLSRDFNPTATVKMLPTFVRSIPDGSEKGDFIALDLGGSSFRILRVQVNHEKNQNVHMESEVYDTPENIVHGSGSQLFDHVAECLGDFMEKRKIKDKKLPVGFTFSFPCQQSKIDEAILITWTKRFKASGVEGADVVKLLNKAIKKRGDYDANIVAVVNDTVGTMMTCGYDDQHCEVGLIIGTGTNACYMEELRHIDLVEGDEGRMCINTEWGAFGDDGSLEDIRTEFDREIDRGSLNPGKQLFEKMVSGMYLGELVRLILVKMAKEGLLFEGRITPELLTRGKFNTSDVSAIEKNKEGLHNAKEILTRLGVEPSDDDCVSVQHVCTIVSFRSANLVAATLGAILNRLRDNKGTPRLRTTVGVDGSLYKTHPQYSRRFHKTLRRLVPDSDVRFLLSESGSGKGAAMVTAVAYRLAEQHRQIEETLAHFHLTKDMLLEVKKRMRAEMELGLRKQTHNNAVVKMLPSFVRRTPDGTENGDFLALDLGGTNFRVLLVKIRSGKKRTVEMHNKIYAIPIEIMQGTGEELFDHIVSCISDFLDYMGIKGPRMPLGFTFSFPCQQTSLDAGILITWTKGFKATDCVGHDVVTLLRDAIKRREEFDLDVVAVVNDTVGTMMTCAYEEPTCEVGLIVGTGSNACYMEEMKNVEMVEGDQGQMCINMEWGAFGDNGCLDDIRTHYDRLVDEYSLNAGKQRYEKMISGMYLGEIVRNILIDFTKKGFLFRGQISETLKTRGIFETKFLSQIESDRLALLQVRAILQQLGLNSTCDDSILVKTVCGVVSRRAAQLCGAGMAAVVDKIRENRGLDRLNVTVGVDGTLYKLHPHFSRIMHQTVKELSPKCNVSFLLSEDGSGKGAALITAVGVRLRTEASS
# T1 sequence (P11413 whole entry): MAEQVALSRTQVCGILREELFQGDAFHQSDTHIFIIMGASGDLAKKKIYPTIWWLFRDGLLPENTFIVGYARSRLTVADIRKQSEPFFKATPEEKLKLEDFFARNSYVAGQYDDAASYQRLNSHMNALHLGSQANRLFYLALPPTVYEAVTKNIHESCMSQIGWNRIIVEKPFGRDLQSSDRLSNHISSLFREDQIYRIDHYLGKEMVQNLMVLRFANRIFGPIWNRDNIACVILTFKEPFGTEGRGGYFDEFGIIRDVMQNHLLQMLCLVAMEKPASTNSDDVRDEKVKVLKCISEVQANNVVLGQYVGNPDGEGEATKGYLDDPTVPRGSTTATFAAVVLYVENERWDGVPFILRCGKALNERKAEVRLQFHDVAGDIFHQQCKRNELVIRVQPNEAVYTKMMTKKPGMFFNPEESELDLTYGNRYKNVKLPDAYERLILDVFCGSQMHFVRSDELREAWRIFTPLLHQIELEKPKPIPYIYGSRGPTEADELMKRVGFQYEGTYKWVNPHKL
SMILES,labeling of WT vs mutant protein by probe (G6PD),labeling of WT vs mutant protein by probe (HK1)
"Cc1cc(C)n2c1C=C1C=CC(CCC(=O)Oc3c(F)c(F)c(S(=O)(=O)[O-])c(F)c3F)=[N+]1[B-]2(F)F.[Na+] [probe 18, reference compound]",NL (labelling of the WT protein was not detected by gel (intensity for WT less than 2x background)),ND (the WT did not label more than the mutant (<2x difference quantified))
"C#Cc1ccc(C(=O)Oc2c(F)c(F)cc(F)c2F)cc1 [probe 12, 2,3,5,6-Tetrafluorophenyl 4-ethynylbenzoate]",ND (the WT did not label more than the mutant (<2x difference quantified)),ND (the WT did not label more than the mutant (<2x difference quantified))
"C#CCCC(=O)Oc1c(F)c(F)c(S(=O)(=O)[O-])c(F)c1F.[Na+] [probe 1, reference compound]",ND (the WT did not label more than the mutant (<2x difference quantified)),PD (the WT labeled more than the mutant (>2x difference quantified))
"C#CCCC(=O)Oc1c(F)c(F)c(F)c(F)c1F [probe 6, Pentafluorophenyl 4-pentynoate]",ND (the WT did not label more than the mutant (<2x difference quantified)),HD (the WT labeled more than the mutant (>4x difference quantified))
"C#Cc1ccc(C(=O)Oc2c(F)c(F)c(F)c(F)c2F)cc1 [probe 13, Pentafluorophenyl 4-ethynylbenzoate]",ND (the WT did not label more than the mutant (<2x difference quantified)),ND (the WT did not label more than the mutant (<2x difference quantified))
